# Test results taken from PubChem BioAssay AID599 (The Scripps Research Institute Molecular Screening Center, 2007).
# Activity calls are given as the source filed them. The rule behind the calls is not given here.
# Molecular target: Nuclear receptor ROR-alpha (Homo sapiens) (UniProt P35398)
# Test: inhibitors of orphan receptor RORA activity – cell-based, counter-screen for SF-1 inhibitor project, dose response (AID 599)
# Conditions: cell-based RORA reporter inhibition
# Nuclear receptor ROR-alpha (Homo sapiens), sequence (P35398 whole entry, looked up): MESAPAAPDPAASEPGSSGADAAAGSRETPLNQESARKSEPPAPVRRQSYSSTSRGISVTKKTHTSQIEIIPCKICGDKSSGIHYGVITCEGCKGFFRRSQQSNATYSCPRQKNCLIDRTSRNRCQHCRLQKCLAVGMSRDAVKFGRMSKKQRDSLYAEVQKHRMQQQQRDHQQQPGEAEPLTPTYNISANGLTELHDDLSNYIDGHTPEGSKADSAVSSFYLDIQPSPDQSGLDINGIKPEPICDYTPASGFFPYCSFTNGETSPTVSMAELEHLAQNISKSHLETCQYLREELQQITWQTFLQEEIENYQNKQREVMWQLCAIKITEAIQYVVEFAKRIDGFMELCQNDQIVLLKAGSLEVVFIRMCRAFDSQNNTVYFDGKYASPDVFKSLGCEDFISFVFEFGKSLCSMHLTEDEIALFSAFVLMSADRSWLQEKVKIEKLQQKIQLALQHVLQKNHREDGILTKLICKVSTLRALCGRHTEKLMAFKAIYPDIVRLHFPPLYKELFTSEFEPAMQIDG
row,SMILES,IC50
1,O=S(=O)(c1ccc2c(c1)C(=NO)c1cc(S(=O)(=O)N3CCCCC3)ccc1-2)N1CCCCC1,1.93 µM
2,CCOc1ccccc1-n1c(SCC(=O)Nc2ccc(CC)cc2)nc2n[nH]c(C)c2c1=N,6.54 µM
3,CCN(CC)c1ccc2c(c1)OC(N)=C(C#N)C2c1cccnc1 (centres undefined),inactive
4,O=C(/C=C\Nc1cccc(F)c1)c1ccc2c(c1)OCO2,5.54 µM
5,CN(C)c1ccc2c(c1)OC(N)=C(C#N)C2c1cccc(F)c1 (centres undefined),inactive
6,Cc1ccc(C(=O)/C=C/Nc2ccccn2)cc1,inactive
7,CSC1=C(C#N)C(c2ccc(Cl)cc2)C2=C(CC(C)(C)CC2=O)N1 (centres undefined),inactive
8,CN(C)c1ccc(N/C=C/C(=O)c2ccccc2)cc1,inactive
9,O=C(/C=C\Nc1ccccn1)c1ccc(Cl)cc1,7.08 µM
10,COC(=O)c1ccc(N2C(=O)CC(N3CCC(n4c(=O)[nH]c5ccccc54)CC3)C2=O)cc1 (centres undefined),> 99 µM (inactive)
11,COc1cc(C2C(C#N)=C(N)Oc3cc(N(C)C)ccc32)cc2c1OCO2 (centres undefined),> 3.67 µM (inactive)
12,N#CC1=C(N)C(C#N)(C#N)[C@H](c2ccncc2)[C@H]2CN(C(=O)OCc3ccccc3)CC=C12,inactive
13,CCOC(=O)C1=C(Cn2cnc3ccccc32)NC(=O)NC1c1cc(C)ccc1C (centres undefined),> 11 µM (inactive)
14,COc1cc(C2C(C#N)=C(C)NC3=C2C(=O)c2ccccc23)cc(OC)c1OC (centres undefined),4.75 µM
15,COC(=O)C1=C(CN2CCCc3ccccc32)NC(=O)NC1c1ccc(F)cc1 (centres undefined),3.59 µM
16,COc1cc(C2C(C#N)=C(N)Oc3cc(N)ccc32)cc(OC)c1OC (centres undefined),inactive
17,O=C(/C=C\Nc1ccc2c(c1)OCO2)c1ccccn1,> 11 µM (inactive)
18,CC(=O)CC1OC(=O)C(Br)=C1NCc1ccccc1 (centres undefined),9.45 µM
19,COc1cc(/C=N/O)ccc1OCc1ccc(C(=O)O)cc1,0.967 µM
